# Data published in patent US12251366B1, “Sulforaphane-cysteine for wound healing in diabetic subjects” (KUWAIT UNIVERSITY, priority 2024, dated 2025).
# Entries after “also recorded” stand apart in the source; their conditions may differ.
# Legend:
# [1] = system: heme oxygenase; test: Tissue mRNA expression of heme oxygenase after SFN-Cys diet; format: in vivo; conditions: heart, kidney, liver and skin; SFN-Cys diet 1.5-2.5 μmol/mouse, 21 days
# Protocol: Testing the pharmacodynamic and toxicodynamic properties of SFN-Cys dictated the mixing SFN-Cys with a powdered diet. The estimated dose delivered by this diet was 1.5-2.5 μmol/mouse (n=4). The SFN-Cys diet was stored at 4° C. and the feeders were refilled daily for the duration of the study (21 days). Corresponding animals received food without the drug.
# (§1) For dietary treatment with SFN-Cys, the SFN-Cys was mixed with a powdered diet (7.5 mg of SFN-Cys per kg of food). The estimated dose delivered by this diet was about 1.0-1.5 mg/kg. The diet was stored at 4° C. and the feeders were refilled daily. Control animals received diet alone. Body weights were recorded twice a week and at the termination of the study, blood was drawn in EDTA-containing tubes, plasma was collected by centrifugation and stored at −80° C. until analysis.
# (§2) Total RNA from cells or frozen sponge implants was extracted using the Trizol reagent (Invitrogen), and the RNA integrity was verified by agarose gel electrophoresis. […] The amplified sequences were assessed using the ABI 7500 Prism Sequence Detection system machine. The results were expressed as mRNA levels normalized to 18S or GAPDH in each sample.
# [2] = system: IL-6; test: Real-time PCR, LPS-induced IL-6 mRNA in peritoneal macrophages; format: cell-based, mouse; conditions: LPS 100 ng/mL, 1.5 umol/L, RT-PCR
# Protocol: Additional tests were conducted to determine whether SFN-Cys also suppresses TNF-α and IL-6 expression at the mRNA level.
# (§3) Thioglycollate-elicited mouse peritoneal macrophages were prepared from C57BL (8-10 weeks old) and cultured in RPMI 1640 with 10% (v/v) FCS Bone marrow-derived macrophages were generated in RPMI medium containing M-CSF (10 ng/mL) according to previously published procedure. For cytokine ELISA assay, cells were seeded at 5×10^5 in 12-well plates, whereas for mRNA expression, the cells were seeded at […]. LPS and used at a dose of 100 ng/mL. Similarly. SFN-Cys was used at a concentration of 1.5 umol/L.
# Total RNA from cells or frozen sponge implants was extracted using the Trizol reagent (Invitrogen), and the RNA integrity was verified by agarose gel electrophoresis. Approximately 1 μg of RNA was reverse transcribed (Superscript II Reverse Transcriptase Kit, Invitrogen) and amplified using the TaqMan Assay on Demand (Applied Biosystems) in a 25 μL reaction volume containing two unlabeled primers, a 6-carboxyfluorescien-labeled TaqMan MGB probe and the master mix. The amplified sequences were assessed using the ABI 7500 Prism Sequence Detection system machine. The results were expressed as mRNA levels normalized to 18S or GAPDH in each sample.
# [3] = Blood tests on plasma after 21 days of SFN-Cys diet; format: in vivo; conditions: mice, diet 7.5 mg/kg food, mean±SEM
# Protocol: To strengthen this conclusion, extensive measurements were conducted on plasma levels of key parameters of kidney and liver toxicities in addition to the lipid and carbohydrate profiles.
# as §1
# Blood tests were performed on hemolysis free plasma samples obtained from animals receiving 21 days of a normal diet or a diet containing 7.5 mg/kg food of SFN-Cys using commercially available kits.
# [4] = system: heme oxygenase (HO); test: mRNA expression of Nrf2 target gene HO in fibroblasts; format: cell-based, rat; conditions: diabetic fibroblasts, 1.5 μM
# Protocol: (§4) To better characterize how SFN-Cys impacts cellular antioxidant levels, the ability of SFN-Cys to regulate the transcription factor nuclear factor erythroid 2-related factor 2 (Nrf2) was assessed, which is a master regulator of the antioxidative stress response that induces the expression of antioxidant proteins such as heme oxygenase (HO) and NAD(P)H dehydrogenase (quinine; NQO1) and key enzymes in the glutathione system. In this context, Nrf2 transcriptional activity was first measured using a vector encoding luciferase driven by the NQO1 promoter. […] Administration of SNF-Cyst at the above indicated concentration (1.5 μM, the lowest effective concentration) ameliorated diabetes-induced suppression of the Nrf2 activity and Nrf2-target genes including HO and NQO1 (FIG. 2A-D).
# as §2
# [5] = system: TNF-α; test: Cytokine ELISA, LPS-stimulated peritoneal macrophages (TNF-α); format: cell-based, mouse
# From the text: This was exemplified in the current study by the ability of SFN-CYS to inhibit lipopolysaccharide (LPS)-induced peritoneal macrophages and bone marrow-derived macrophages to produce tumor necrosis factor-α (TNF-α) and interlukin-6 (IL-6). TNF-α and IL-6 are two of the major inflammatory mediators that contribute to the pathogenesis of low-grade inflammation; a phenomenon which is commonly associated with the diabetic state. […] Pre-treatment with SFN-Cys inhibited the expression of LPS-induced TNF-α and IL-6 protein at a therapeutic dose of 1.5 μM (FIGS. 1A and 1B).
# as §3
# For cytokine ELISA, supernatants from cultured macrophages were collected in response to treatment with SFN and SFN-Cys for 6 h. The total TNF-α and TL-6 were measured by enzyme-linked immunosorbent assay (ELISA) using kits (R&D system, USA) according to the manufacturer's protocols.
# [6] = system: Nrf2; test: Nrf2 activity (NQO1-ARE luciferase) in fibroblasts; format: cell-based, rat
# Protocol: as §4
# CF and DF were transfected with the antioxidative stress response element ARE-luciferase and pRenilla vectors using lipofectamine 2000 (Invitogen, USA). In this context, cells were plated and transfected in 12-well plates. Following treatment with SFN-Cys, cells were lysed and firefly and Renilla luciferase activity was determined using Dual luciferase assay (Promega, USA).
# [7] = system: neuronal, vascular, muscle, cardiac and stem cells; test: Protection of cells from oxidative stress and inflammation-induced apoptotic cell death; format: cell-based; conditions: at certain concentrations
# From the text: Thus, SNF-Cys may have a therapeutic benefit in the following conditions in addition to impaired wound healing: Sarcopenia, Fat grafting, Psoriasis, Nerve regeneration and diabetic neuropathy, Erectile dysfunction, and Cardiac fibrosis.
# [8] = system: transforming growth factor beta (TGF-β); test: TGF-β expression (cardiac fibrosis); format: in vivo
# From the text: Therapeutic rational was considered for SFN-Cys effectiveness in the following pathological conditions: Sarcopenia-SFN-Cys increased muscle weight in diabetic mice, see FIGS. 4A and 4B; Cardiac fibrosis-SFN-Cys inhibits transforming growth factor beta (TGF-β) expression, see FIG. 4C; Erectile dysfunction-SFN-Cys increased endothelial nitric oxide activity and expression in corpus cavernosum.
structure (smiles),measurement,setting,value
"C[S+]([O-])CCCCNC(=S)SCC(N)C(=O)O (stereo not shown) [SFN-Cys, Sulforaphane-Cysteine]",mRNA expression of heme oxygenase relative to control,[1],about 3 folds
same,LPS-induced IL-6 mRNA up-regulation,[2],significantly inhibited
same,Plasma Alanine aminotransferase,[3],44.5 ± 17 IU/L
same,Plasma Alkaline phosphatase,[3],27 ± 15 IU/L
same,Plasma Aspartate aminotransferase,[3],172 ± 25 IU/L
same,Plasma Creatinine,[3],8.87 ± 0.91 µmol/L
same,Plasma Free fatty acid,[3],0.41 ± 0.14 mmol/L
same,Plasma Glucose,[3],5.87 ± 0.90 mmol/L
same,Plasma Ketone bodies,[3],0.079 ± 0.01 mmol/L
same,Plasma Total bilirubin,[3],4.23 ± 0.48 µmol/L
same,Plasma Total cholesterol,[3],2.15 ± 0.42 mmol/L
same,Plasma Triglyceride,[3],1.15 ± 0.25 mmol/L
same,mRNA expression of Nrf2 target gene HO,[4],ameliorated
same,"anti-inflammatory activity (overall, SFN-Cys compared with SFN)","[5]; LPS-stimulated macrophages, mouse model of type 2 diabetes",exhibited anti-inflammatory and antioxidant activities; also recorded: more potent than SFN
same,expression of LPS-induced TNF-α protein,"[5]; peritoneal macrophages, LPS 100 ng/mL 6 hours, pre-treatment 1.5 μM, ELISA",inhibited
same,Nrf2 transcriptional activity (NQO1 promoter luciferase),"[6]; DF and CF-GP, 1.5 μM",ameliorated
same,lowest effective concentration,"[6]; fibroblasts, Nrf2 activity and Nrf2-target genes",1.5 µM
same,protection from oxidative state and low-grade inflammation-induced apoptotic cell death,[7],protects
same,TGF-β expression,[8],inhibits
